The subject of experiment [1] is C. elegans daf-16 gene variant strain (mu86). Put plainly: Extension of C. elegans (nematode) lifespan by febuxostat, daf-16 variant strain (Example 1). The format is in vivo. How it is done: (§1) Extension of lifespan by febuxostat was examined using a wild type strain (N2, Bristrol) and a daf-16 gene (nematode ortholog of human transcription factor FOXO; a typical example of shortened lifespan in nematode variant due to a transcription factor that is suppressed by insulin signals) variant strain (mu86). Both strains were bred at 20° C.
(§2) In order to keep the developmental stage of the strains used for lifespan measurement constant, it was waited until food (Escherichia coli) was exhausted and growth of first instar larvae stopped. The nematode was cut and planted together with agar in a petri dish with food.
(§3) Ampicillin (100 μg/ml) was added to a 6 cm NGM plate (standard medium for nematode culture) to inhibit the growth of the food Escherichia coli strain and its associated metabolism, and OP50 (the food Escherichia coli strain) and FBX were added ([…]).
(§4) When the cut and planted nematodes became adults, they were washed out of the petri dish using M9 buffer and collected. The nematodes were suspended in Eppendorf tubes. An equal amount of bleach solution (a mixture of 4N NaOH, hypochlorous acid solution, and M9 buffer at a ratio of 2:3:5) to the nematode suspension was added and mixed. […]
(§5) Life or death was determined for each individual every other day, and the data was recorded. […]
(§6) The lifespan tracking was completed when it was determined that all nematodes had died.

In experiment [2] the test system is mitochondria of the muscle of C. elegans (N2). Put plainly: Effect of febuxostat on mitochondrial morphology in nematode muscle, electron microscopy (Example 3). The settings on record: cultured 18 days in the presence of 20 μg/mL of febuxostat, compared with FBX(−), FIG. 5. The class given is in vivo. The protocol: The effect of febuxostat on lifespan was examined using a wild type strain (N2, Bristrol) of C. elegans as a nematode. In addition, mitochondria of the nematode cultured in the absence and presence of febuxostat were compared under electron microscopy.
On the 18th day of culturing, nematodes were fixed by the following method. An M9 buffer comprising 8% ethanol was dropped on a slide glass, and the nematodes were placed therein and allowed to stand until the nematodes stopped moving (about 5 minutes). Next, a fixing solution was placed on another slide glass, and the nematodes that had stopped moving were transferred to the fixing solution. The fixing solution comprises 2% paraformaldehyde+2% glutaraldehyde/0.1M phosphate buffer (pH 7.4), and was adjusted prior to use.
Subsequently, a 22 G injection needle was used to cut the nematodes in the following procedure.
First, the cranial side was cut from the pharynx, and then amputation was performed around Vulva. In this experiment, in order to observe the mitochondria of the muscle behind Vulva with an electron microscope, only the caudal side was collected and placed in an Eppendorf tube comprising a fixing solution (4° C.)
Observation with an electron microscope was carried out by requesting the Hanaichi UltraStructure Research Institute (Okazaki City, Aichi Prefecture) using an electron microscope HITACHI H-7600 (100 kV).

Experiment [3] concerns C. elegans wild type strain (N2, Bristrol). Description: Effect of febuxostat on nematode lifespan, UV-killed Escherichia coli plus kanamycin (Example 3). The format is in vivo. The settings on record: N2, febuxostat 5, 10, 20 μg/mL, FIG. 4. The protocol: The effect of febuxostat on lifespan was examined using a wild type strain (N2, Bristrol) of C. elegans as a nematode. In addition, mitochondria of the nematode cultured in the absence and presence of febuxostat were compared under electron microscopy. The culturing method and culturing conditions for nematodes (N2) were almost the same as those in Example 1 except for the method for treating the food added to the medium. Generally, Escherichia coli is added to the NGM plate as food for nematodes; however, when Escherichia coli grows, it may affect metabolites, etc. Therefore, a method of adding the antibiotic ampicillin to stop the growth of Escherichia coli is performed. However, it cannot be completely denied that the presence of ampicillin in the NGM plate had some effect. Therefore, instead of adding ampicillin, Escherichia coli was killed by being irradiated with ultraviolet rays, and kanamycin was further added. In this way, Escherichia coli as food was treated differently from Example 1, and it was checked whether the same experimental results as in Example 1 could be obtained. The concentration of febuxostat added to the NGM plate was 5, 10, 20 μg/mL.

Experiment [4] has the same test system. Description: Extension of C. elegans (nematode) lifespan by febuxostat, wild type strain (Example 1). The format is in vivo. Particulars: wild type strain N2, febuxostat 10 mg/ml, 20° C., FIG. 2. The protocol:
as §1, §2, §3, §4, §5, §6

The subject of experiment [5] is C. elegans. The settings on record: Non-Patent Documents 13 to 16; cited from earlier work.

Turning to `Cc1nc(-c2ccc(OCC(C)C)c(C#N)c2)sc1C(=O)O` [febuxostat], in experiment [1] (daf-16 gene variant strain (mu86) with febuxostat), the “lifespan compared with the wild type strain” value is recorded as “did not reach the same length of lifespan as that of the wild type strain”. The lifespan result in experiment [1] (daf-16 gene variant strain (mu86), febuxostat 10 mg/ml, 20° C., FIG. 3) is recorded as “showed an extension of lifespan”; in experiment [4] it was “showed an extension of lifespan”. Besides, the “morphology of mitochondria in the muscle” value in experiment [2] is “morphology of mitochondria is maintained almost normally”. Besides, the lifespan of nematodes entry in experiment [3] is reported as “lifespan of nematodes is extended”.

On to `CN(C)C(=N)N=C(N)N` [metformin], for which the “lifespan in C. elegans” value in experiment [5] is given as “prolongs the lifespan”.

Source of the values: US20220072022A1, “ANTI-AGING AGENT OR LIFE-EXTENDING AGENT” (StaGen Co., Ltd., priority 2019, published 2022).
